The source of these data is ChEMBL document CHEMBL1201862, “PubChem BioAssay data set” (2004).

Each structure is given as a SMILES string.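 Cultured in 96-well plates, cells were exposed to test compound for 48 hours across five concentrations. GI50 is the concentration that inhibits growth by half.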 Active and inactive are the calls of the source. Cut-off read from the data, not from the text of the source: active = GI50 up to about 1.1 µM and inactive = higher.

Some test systems named below: DLD-1; DMS-114; KM-20L2; LXFL 529; M19-MEL; RXF 631; XF498; DMS-273; HOP-18.
Assay in all cases: growth of human tumour cells (NCI), 48 h

Regarding `CC1=C(C(=O)Nc2cc(=O)n(C)c(=O)n2C)C(c2ccco2)C(C(=O)Nc2cc(=O)n(C)c(=O)n2C)=C(C)N1`, the GI50 with DLD-1, in the experiment on DMS-114, in the experiment on KM-20L2, with LXFL 529, in the experiment on M19-MEL and with RXF 631 was > 100 µM (inactive) in each case. Also, in the experiment on XF498, the GI50 was > 100 µM (inactive).
`COC(=O)CSc1nnc(-c2ccc(O)c([N+](=O)[O-])c2)[nH]1`: the GI50 in the experiment with DLD-1, in the experiment on DMS-273, with KM-20L2, with LXFL 529, in the experiment on RXF 631 and with XF498 was > 100 µM (inactive) in each case.
As to `COc1cc2c(c(OC)c1)C1(CC(CC#N)C2)SCCS1` (stereo unspecified), the GI50 with DLD-1, with DMS-114, with DMS-273, with HOP-18, with KM-20L2 and in the experiment on LXFL 529 was > 100 µM (inactive) in each case. For the same molecule, the GI50 with M19-MEL and with RXF 631 was > 100 µM (inactive) in each case.
In the case of `CN(C)[C@@H]1C(O)=C(C(=O)NCNc2nc3[nH]nnc3c(=O)[nH]2)C(=O)[C@@]2(O)C(O)=C3C(=O)c4c(O)cccc4[C@@](C)(O)[C@H]3C[C@@H]12`, the GI50 in the experiment with DLD-1 is 29.7 µM (inactive); with DMS-114, 1.52 µM (inactive); in the experiment with DMS-273, 1.29 µM (inactive); in the experiment with HOP-18, 2.19 µM (inactive); in the experiment on KM-20L2, 16.2 µM (inactive); with LXFL 529, 53.1 µM (inactive). In addition, the GI50 in the experiment with M19-MEL was 2.24 µM (inactive); in the experiment with RXF 631, 0.836 µM (active); in the experiment on XF498 it was 1.26 µM (inactive).
On to `O=C(c1ccccn1)c1nc(-c2ccc(Cl)c(Cl)c2)nc2ccc(Cl)cc12`, for which the GI50 in the experiment with DLD-1 is 99.3 µM (inactive); in the experiment on DMS-114, 64.6 µM (inactive); with DMS-273, 32 µM (inactive); in the experiment with KM-20L2 it was > 100 µM (inactive); in the experiment with LXFL 529, 46.6 µM (inactive); in the experiment with M19-MEL, 81.1 µM (inactive). For the same molecule, the GI50 in the experiment on XF498 is 20.8 µM (inactive).
Consider `CN(C)C(=S)/N=c1\ss/c(=N\C(=S)N(C)C)n1-c1ccc(Cl)c(Cl)c1`, for which the GI50 with DMS-114, in the experiment with DMS-273, with KM-20L2 and in the experiment with M19-MEL was > 100 µM (inactive) each time.
For `NCCCCN(CCCN)/[N+]([O-])=N\O`, the GI50 in the experiment on DLD-1, in the experiment with DMS-114, in the experiment on DMS-273, with HOP-18, with KM-20L2 and in the experiment with LXFL 529 was > 100 µM (inactive) each time. For the same molecule, the GI50 with M19-MEL is > 100 µM (inactive).
As for `COc1cc2c(cc1OC)C(C(=O)c1cccc(OC)c1OC)C(=O)N(C)CC2` (stereo unspecified), the GI50 in the experiment on DLD-1 is > 100 µM (inactive); in the experiment on DMS-114, 56.5 µM (inactive); in the experiment on DMS-273 it was > 100 µM (inactive); in the experiment on HOP-18, > 100 µM (inactive); with KM-20L2, > 100 µM (inactive); in the experiment with LXFL 529, > 100 µM (inactive). Moreover, the GI50 in the experiment on M19-MEL is > 100 µM (inactive); in the experiment with RXF 631, > 100 µM (inactive); with XF498, 63.4 µM (inactive).
In the case of `COC(=O)/C=C/C1C2C3(CCC(C)C12C)OCCS3` (stereo unspecified), the GI50 in the experiment with DLD-1, with DMS-114, in the experiment with DMS-273, in the experiment on HOP-18, in the experiment with KM-20L2 and with LXFL 529 was > 100 µM (inactive) each time. The GI50 with M19-MEL and in the experiment on XF498 was > 100 µM (inactive) throughout.
`Nc1ccn([C@@H]2C[C@H](CO)[C@@H](O)[C@H]2O)c(=O)n1`: the GI50 in the experiment on DLD-1, with DMS-114, in the experiment on DMS-273, in the experiment with HOP-18, in the experiment with KM-20L2 and in the experiment with LXFL 529 was > 57.7 µM (inactive) in each case. Besides, the GI50 in the experiment on M19-MEL and with RXF 631 was > 57.7 µM (inactive) in each case.
For `CNS(=O)(=O)NNS(=O)(=O)c1ccc(Br)cc1`, the GI50 with DLD-1 is > 100 µM (inactive); in the experiment on DMS-114, > 100 µM (inactive); with DMS-273 it was > 100 µM (inactive); in the experiment with HOP-18, 2.64 µM (inactive); with KM-20L2 it was > 100 µM (inactive); in the experiment with LXFL 529 it was > 100 µM (inactive). Further, the GI50 in the experiment on M19-MEL, with RXF 631 and in the experiment with XF498 was > 100 µM (inactive) in each case.
In the case of `NC(=O)NC1C(C(=O)O)N(Cc2ccccc2)C(=O)N1Cc1ccccc1` (stereo unspecified), the GI50 in the experiment on DLD-1, with DMS-114, with KM-20L2, in the experiment on LXFL 529, in the experiment with M19-MEL and in the experiment with XF498 was > 100 µM (inactive) each time.
`COc1ccc(OC)c2[s+]snc12`: the GI50 in the experiment with DLD-1 was 49.5 µM (inactive); in the experiment with DMS-273, > 100 µM (inactive); in the experiment on KM-20L2 it was > 100 µM (inactive); with LXFL 529, 35.6 µM (inactive); in the experiment on M19-MEL, 15.8 µM (inactive); in the experiment on RXF 631, > 100 µM (inactive). The GI50 in the experiment with XF498 is 45.3 µM (inactive).
For the molecule `COc1ccc(C2CC(=O)c3c(O)cc(O)cc3O2)cc1O` (stereo unspecified), the GI50 in the experiment with DLD-1, in the experiment with DMS-114, in the experiment on DMS-273, in the experiment with KM-20L2, with LXFL 529 and in the experiment with M19-MEL was > 100 µM (inactive) throughout. The GI50 with RXF 631 and in the experiment with XF498 was > 100 µM (inactive) throughout.
As for `CC(=O)NC(Cc1ccccc1)C(=S)N1CCCC1` (stereo unspecified), the GI50 was > 100 µM (inactive) in the experiment with DLD-1; > 100 µM (inactive) in the experiment on DMS-114; > 100 µM (inactive) in the experiment on DMS-273; 15.3 µM (inactive) with HOP-18; > 100 µM (inactive) in the experiment on KM-20L2; > 100 µM (inactive) in the experiment on LXFL 529. In addition, the GI50 in the experiment with M19-MEL, in the experiment on RXF 631 and in the experiment on XF498 was > 100 µM (inactive) each time.
For the molecule `COC(=O)Cc1cc(O)c2c(c1O)C(=O)c1ccccc1C2=O`, the GI50 in the experiment with DLD-1 was > 100 µM (inactive); in the experiment with DMS-114, > 100 µM (inactive); in the experiment on DMS-273, > 100 µM (inactive); in the experiment on HOP-18, > 100 µM (inactive); in the experiment with KM-20L2, > 100 µM (inactive); in the experiment with LXFL 529 it was 71.4 µM (inactive). In addition, the figures for the GI50 in the experiment with M19-MEL and in the experiment with RXF 631 were > 100 µM (inactive) and 35.6 µM (inactive), respectively.
Take `Cc1c2ccncc2c(C)c2c1[nH]c1ccc(Cl)cc12`: the GI50 was 2.15 µM (inactive) with DLD-1; 2.07 µM (inactive) in the experiment with DMS-114; 1.59 µM (inactive) in the experiment on DMS-273; 2.52 µM (inactive) with HOP-18; 2.56 µM (inactive) in the experiment on KM-20L2; 1.84 µM (inactive) with LXFL 529. Moreover, the figures for the GI50 with M19-MEL and with XF498 were 2.56 µM (inactive) and 4.31 µM (inactive), respectively.
With `COc1ccc(OCC(=O)O)c2c1CCCC2=O`, the GI50 in the experiment with DLD-1, with DMS-114, with DMS-273, with LXFL 529, in the experiment with M19-MEL and with RXF 631 was > 100 µM (inactive) each time. Further, the GI50 in the experiment with XF498 is 3.52 µM (inactive).
Consider `COC(=O)C(=O)C(C#N)c1cccc2ccccc12` (stereo unspecified), for which the GI50 in the experiment on DLD-1, in the experiment on DMS-114, with DMS-273, with HOP-18, in the experiment with KM-20L2 and with LXFL 529 was > 100 µM (inactive) throughout. The GI50 in the experiment with M19-MEL and with XF498 was > 100 µM (inactive) each time.
Consider `COc1ccc2c(c1)CCc1c-2nc2cc3c(cc2c1O)OCO3`, for which the GI50 with DLD-1, with DMS-273, in the experiment with HOP-18, with KM-20L2, with LXFL 529 and in the experiment on M19-MEL was > 100 µM (inactive) in each case. Further, the GI50 in the experiment on XF498 is > 100 µM (inactive).
On to `COc1cc2c(c(OC)c1OC)-c1ccc(OC)c(=O)cc1C(NC(=O)c1ccc(N=[N+]=[N-])cc1)CC2` (stereo unspecified), for which the GI50 in the experiment on DLD-1 is 0.0413 µM (active); in the experiment with DMS-114, 0.0257 µM (active); in the experiment on DMS-273 it was 0.0244 µM (active); in the experiment with HOP-18, > 84.9 µM (inactive); with KM-20L2, 0.0188 µM (active); in the experiment with LXFL 529, 0.0372 µM (active). In addition, the GI50 in the experiment with M19-MEL is 0.0581 µM (active).
Consider `O=C(NC12CC3CC(CC(C3)C1)C2)C(=O)c1c[nH]c2ccc(Br)cc12`, for which the GI50 in the experiment on DLD-1 is 13.4 µM (inactive); with DMS-114, 65.9 µM (inactive); with DMS-273 it was 4.54 µM (inactive); in the experiment on HOP-18, 19.1 µM (inactive); with KM-20L2, 4.54 µM (inactive); in the experiment on LXFL 529, 15.5 µM (inactive).
As to `CC1CCSC(N(C(=O)N(C)c2ccccc2)c2ccccc2)=N1` (stereo unspecified), the GI50 in the experiment on DLD-1, in the experiment on DMS-114, with DMS-273, in the experiment on KM-20L2, in the experiment with LXFL 529 and with M19-MEL was > 100 µM (inactive) throughout. The GI50 with XF498 was > 100 µM (inactive).
For the molecule `CC[C@@]1(OC(=O)CN(C)C)C(=O)OCc2c1cc1n(c2=O)Cc2cc3ccccc3nc2-1`, the GI50 in the experiment with DLD-1 is 0.323 µM (active); in the experiment on DMS-114, 0.0259 µM (active); in the experiment on DMS-273 it was 0.01 µM (active); in the experiment on HOP-18, 0.312 µM (active); with KM-20L2, 0.249 µM (active); in the experiment with LXFL 529, 1.29 µM (inactive). The results for the GI50 in the experiment with M19-MEL and in the experiment with XF498 were 0.114 µM (active) and 0.354 µM (active), respectively.
For the molecule `O=C(NC12CC3CCC1CC(C3)C2)[C@@H]1CCCN1C(=O)OCc1ccccc1` (stereo partly specified), the GI50 was 56.9 µM (inactive) in the experiment on DLD-1; 50.4 µM (inactive) in the experiment on DMS-114; 49.8 µM (inactive) in the experiment with DMS-273; > 100 µM (inactive) in the experiment on HOP-18; 46.9 µM (inactive) in the experiment with KM-20L2; 30.3 µM (inactive) in the experiment with LXFL 529. For the same molecule, the GI50 in the experiment on M19-MEL was 83.6 µM (inactive); in the experiment on XF498, 19.2 µM (inactive).
